The assay addresses T1, human LXRβ (Homo sapiens, UniProt P55055).
T1 construct: expressed in transfected cells; host or cells: HEK293 cells (ATCC CRL-1573), transient transfection with pFA-hLXRβ/GAL4 and pUAS
T1 sequence (P55055 222-460 limits assumed): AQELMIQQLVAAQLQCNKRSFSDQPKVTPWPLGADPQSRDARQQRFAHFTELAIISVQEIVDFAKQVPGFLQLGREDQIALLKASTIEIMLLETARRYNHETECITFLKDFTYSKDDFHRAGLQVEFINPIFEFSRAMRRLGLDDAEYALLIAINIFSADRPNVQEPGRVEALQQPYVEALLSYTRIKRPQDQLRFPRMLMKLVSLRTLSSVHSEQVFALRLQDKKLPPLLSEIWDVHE
Description: Assay for Transcriptional Activity of LXRβ (GAL4-hLXRβ LBD luciferase reporter, transient transfection). The class given is cell-based. To be noted: HEK293 cells transfected with pFA-hLXRβ/GAL4 and pUAS, 24 hours; for Emax: fold value in comparison with the control (DMSO-treated group); for EC50: increase of transcriptional activity of LXRβ, average of three independent tests. In a few lines: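 HEK293 cells transiently co-transfected with GAL4-hLXRβ LBD and 5×GAL4-UAS luciferase reporter, treated 24 h at 37 °C with compounds over 9 points (0.01–50 μM, half-log). Luminescence read after lysis; EC50 from four-parameter fit, mean of three independent tests, with a known LXR agonist as positive control.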
Background: In a reporter assay the amount or activity of a reporter protein is the signal.

We go through 23 compounds from patent US9376420B2 (YUHAN CORPORATION, priority 2012, dated 2016).

As usually defined, the EC50 is the concentration needed to bring the measured effect to its halfway point. As to `CC(C)(C)OC(=O)N1CCN(c2ccc(C3CC(C(O)(C(F)(F)F)C(F)(F)F)=NN3c3ccccc3Cl)cn2)CC1` (stereo not shown) [Example 355, 1-(2-chloro-phenyl)-5-[6-(4-BOC-piperazin-1-yl)-pyridin-3-yl]-3-[di-(trifluoromethyl)-hydroxy-methyl]-4,5-dihydro-1H-pyrazole], the Emax was found to be 43 fold and the EC50 came out at 4.13 µM.
Take `CS(=O)(=O)N1CCN(c2ccc(C3CC(C(O)(C(F)(F)F)C(F)(F)F)=NN3c3ccc(F)cc3F)cc2)CC1` (stereo not shown) [Example 406, 1-(2,4-difluoro-phenyl)-5-[4-(4-methanesulfonyl-piperazin-1-yl)-phenyl]-3-[di-(trifluoromethyl)-hydroxy-methyl]-4,5-dihydro-1H-pyrazole]: the Emax is on record as 53 fold and the response was half-maximal at 0.966 µM (EC50).
`CS(=O)(=O)N1CC=C(c2ccnc(C3CC(C(F)(F)C(F)(F)F)=NN3c3ccc(F)cc3F)c2)CC1` (stereo not shown) [Example 180, 1-(2,4-difluoro-phenyl)-5-[4-(1-methanesulfonyl-1,2,3,6-tetrahydropyridin-4-yl)-pyridin-2-yl]-3-pentafluoroethyl-4,5-dihydro-1H-pyrazole] returned an Emax of 118 fold and an EC50 of 0.513 µM.
The compound `COc1cc(C)c(-c2ccc(C3CC(C(O)(C(F)(F)F)C(F)(F)F)=NN3c3ccc(F)cc3F)cc2)cn1` (stereo not shown) [Example 383, 1-(2,4-difluoro-phenyl)-5-[4-(6-methoxy-4-methyl-pyridin-3-yl)-phenyl]-3-[di-(trifluoromethyl)-hydroxy-methyl]-4,5-dihydro-1H-pyrazole] yielded an Emax of 49 fold and an EC50 of 0.368 µM.
The compound `CS(=O)(=O)c1cccc(-c2cncc(C3CC(C(F)(F)C(F)(F)F)=NN3c3ccc(F)cc3F)c2)c1` (stereo not shown) [Example 165, 1-(2,4-difluoro-phenyl)-5-[3-(3-methanesulfonyl-phenyl)-pyridin-5-yl]-3-pentafluoroethyl-4,5-dihydro-1H-pyrazole] registered an Emax of 157 fold and an EC50 of 0.225 µM.
For `CSc1ccc(-c2ccc(F)c(C3CC(C(F)(F)C(F)(F)F)=NN3c3ccc(F)cc3F)c2)cn1` (stereo not shown) [Example 140, 1-(2,4-difluoro-phenyl)-5-[6-fluoro-3-(6-methylsulfanyl-pyridin-3-yl)-phenyl]-3-pentafluoroethyl-4,5-dihydro-1H-pyrazole], the Emax is listed as 143 fold and a half-maximal response (EC50) required 1.77 µM.
`COc1ncccc1-c1cccc(C2CC(C(F)(F)C(F)(F)F)=NN2c2ccc(F)cc2F)c1` (stereo not shown) [Example 75, 1-(2,4-difluoro-phenyl)-5-(3-(2-methoxy-pyridin-3-yl)-phenyl)-3-pentafluoroethyl-4,5-dihydro-1H-pyrazole] had an Emax of 63 fold and an EC50 of 1.12 µM.
In turn, `C[S+]([O-])c1ccc(-c2cccc(C3CC(C(F)(F)C(F)(F)F)=NN3c3ccc(F)cc3F)c2)cc1` (stereo not shown) [Example 52, 1-(2,4-difluoro-phenyl)-5-(4′-methanesulfinyl-biphenyl-3-yl)-3-pentafluoroethyl-4,5-dihydro-1H-pyrazole] displayed an Emax of 56 fold and an EC50 of 0.546 µM.
In turn, `CSc1ccc(-c2ccnc(C3CC(C(F)(F)C(F)(F)F)=NN3c3ccc(F)cc3F)c2)cc1` (stereo not shown) [Example 173, 1-(2,4-difluoro-phenyl)-5-[4-(4-methylsulfanyl-phenyl)-pyridin-2-yl]-3-pentafluoroethyl-4,5-dihydro-1H-pyrazole] yielded an Emax of 102 fold and an EC50 of 2.49 µM.
`CS(=O)(=O)N1CCCN(c2ccc(C3CC(C(O)(C(F)(F)F)C(F)(F)F)=NN3c3ccc(F)cc3F)cc2)CC1` (stereo not shown) [Example 410, 1-(2,4-difluoro-phenyl)-5-[4-(4-methanesulfonyl-homopiperazin-1-yl)-phenyl]-3-[di-(trifluoromethyl)-hydroxy-methyl]-4,5-dihydro-1H-pyrazole] returned an Emax of 74 fold and an EC50 of 0.154 µM.
As to `CS(=O)(=O)c1ccc(-c2cccc(C3CC(C(F)(F)C(F)(F)F)=NN3c3ccc(F)cc3F)c2)cc1` (stereo not shown) [Example 51, 1-(2,4-difluoro-phenyl)-5-(4′-methanesulfonyl-biphenyl-3-yl)-3-pentafluoroethyl-4,5-dihydro-1H-pyrazole], the Emax is 61 fold and the midpoint of the response, the EC50, lay at 2.48 µM.
For `O=C(O)C(F)(F)F.OC(C1=NN(c2ccccc2Cl)C(c2cccc(C3=CCNCC3)c2)C1)(C(F)(F)F)C(F)(F)F` (stereo not shown) [Example 230, 1-(2-chloro-phenyl)-5-[3-(1,2,3,6-tetrahydropyridin-4-yl)-phenyl]-3-[di-(trifluoromethyl)-hydroxy-methyl]-4,5-dihydro-1H-pyrazole trifluoroacetate] the same measures were 137 fold and 0.036 µM.
In the case of `CS(=O)(=O)c1ccc(-c2ccc(C3CC(C(O)(C(F)(F)F)C(F)(F)F)=NN3c3ccccc3Cl)cc2)cc1C#N` (stereo not shown) [Example 290, 1-(2-chloro-phenyl)-5-[3′-cyano-4′-(methylsulfonyl)-biphenyl-4-yl]-3-[di-(trifluoromethyl)-hydroxy-methyl]-4,5-dihydro-1H-pyrazole], the Emax is 29 fold and the EC50 stood at 0.161 µM.
Take `OCc1ccc(-c2cccc(C3CC(C(F)(F)C(F)(F)F)=NN3c3ccc(F)cc3F)c2)nc1` (stereo not shown) [Example 91, 1-(2,4-difluoro-phenyl)-5-[3-(5-hydroxymethyl-pyridin-2-yl)-phenyl]-3-pentafluoroethyl-4,5-dihydro-1H-pyrazole]: the Emax stood at 44 fold and a half-maximal effect (EC50) was put at 1.46 µM.
For `CN(C)C(=O)N1CC=C(c2cccc(C3CC(C(F)(F)C(F)(F)F)=NN3c3ccc(F)cc3F)c2)CC1` (stereo not shown) [Example 64, 1-(2,4-difluoro-phenyl)-5-[3-(1-dimethylcarbamoyl-1,2,3,6-tetrahydropyridin-4-yl)-phenyl]-3-pentafluoroethyl-4,5-dihydro-1H-pyrazole] the same measures were 48 fold and 1.3 µM.
For `COc1ccc(-c2ccc(C3CC(C(O)(C(F)(F)F)C(F)(F)F)=NN3c3ccccc3Cl)cc2F)cc1` (stereo not shown) [Example 363, 1-(2-chloro-phenyl)-5-(2-fluoro-4′-methoxy-biphenyl-4-yl)-3-[di-(trifluoromethyl)-hydroxy-methyl]-4,5-dihydro-1H-pyrazole], the Emax turned out to be 50 fold and the EC50 worked out at 1.21 µM.
As for `CN(CCO)S(=O)(=O)c1cccc(-c2cccc(N3N=C(C(F)(F)C(F)(F)F)CC3c3ccc(F)cc3F)c2)c1` (stereo not shown) [Example 210, 5-(2,4-difluoro-phenyl)-1-{3′-[(2-hydroxy-ethyl)-methyl-sulfamoyl]-biphenyl-3-yl}-3-pentafluoroethyl-4,5-dihydro-1H-pyrazole], the Emax is 25 fold and it took 4.47 µM to reach a half-maximal effect (EC50).
`O=C(c1ccc(Cl)cc1)N1CC=C(c2cccc(C3CC(C(O)(C(F)(F)F)C(F)(F)F)=NN3c3ccccc3Cl)c2)CC1` (stereo not shown) [Example 237, 5-{3-[1-(4-chloro-benzoyl)-1,2,3,6-tetrahydropyridin-4-yl]-phenyl}-1-(2-chloro-phenyl)-3-[di-(trifluoromethyl)-hydroxy-methyl]-4,5-dihydro-1H-pyrazole] had an Emax of 81 fold and an EC50 of 0.119 µM.
For the compound `CSc1cccc(-c2ccc(C3CC(C(F)(F)C(F)(F)F)=NN3Cc3ccccc3Cl)cc2)c1` (stereo not shown) [Example 15, 1-(2-chloro-benzyl)-5-(3′-methylsulfanyl-biphenyl-4-yl)-3-pentafluoroethyl-4,5-dihydro-1H-pyrazole], the Emax is on record as 23 fold and it took 14.8 µM to reach a half-maximal effect (EC50).
With `O=C(c1cccs1)N1CC=C(c2cccc(C3CC(C(O)(C(F)(F)F)C(F)(F)F)=NN3c3ccccc3Cl)c2)CC1` (stereo not shown) [Example 234, 1-(2-chloro-phenyl)-5-{3-[1-(thiophene-2-carbonyl)-1,2,3,6-tetrahydropyridin-4-yl]-phenyl}-3-[di-(trifluoromethyl)-hydroxy-methyl]-4,5-dihydro-1H-pyrazole], the Emax came out at 49 fold and the EC50 was 0.013 µM.
Compound `CS(=O)(=O)c1ccc(-c2cccc(N3N=C(C(O)(C(F)(F)F)C(F)(F)F)CC3c3ccccc3Cl)c2)cn1` (stereo not shown) [Example 435, 5-(2-chloro-phenyl)-1-{3-[6-(methylsulfonyl)-pyridin-3-yl]-phenyl}-3-[di-(trifluoromethyl)-hydroxy-methyl]-4,5-dihydro-1H-pyrazole] registered an Emax of 25 fold and an EC50 of 0.965 µM.
Compound `CCOc1cccc(-c2ccc(C3CC(C(O)(C(F)(F)F)C(F)(F)F)=NN3c3ccccc3Cl)cc2)c1` (stereo not shown) [Example 251, 1-(2-chloro-phenyl)-5-(3′-ethoxy-biphenyl-4-yl)-3-[di-(trifluoromethyl)-hydroxy-methyl]-4,5-dihydro-1H-pyrazole] gave an Emax of 96 fold and an EC50 of 1.95 µM.
`OC(C1=NN(c2ccccc2Cl)C(c2ccc(-c3cc4ccccc4s3)cc2)C1)(C(F)(F)F)C(F)(F)F` (stereo not shown) [Example 263, 5-(4-benzo[b]thiophen-2-yl-phenyl)-1-(2-chloro-phenyl)-3-[di-(trifluoromethyl)-hydroxy-methyl]-4,5-dihydro-1H-pyrazole] showed an Emax of 72 fold and an EC50 of 1.27 µM.
